Measured values published in patent US20170190671A1, “BIS(ARYL)CATECHOL DERIVATIVES AS HERBICIDES” (E I DU PONT DE NEMOURS AND COMPANY, priority 2014, published 2017).

Legend:
Details in all cases: scale 0 to 100
wild oat (Avenafatua) [1] = experiment: Test D postemergence; format: in vivo, Avena fatua
From the text: (§1) Seeds of plant species selected from bluegrass (annual bluegrass, Poa annua), blackgrass (Alopecurus myosuroides), canarygrass (Phalaris minor), chickweed (common chickweed, Stellaria media), cutleaf geranium (Geranium dissectum), galium (catchweed bedstraw, Galium aparine), downy bromegrass (Bromus tectorum), field poppy (Papaver rhoeas), field violet (Viola arvensis), green foxtail (Setaria viridis), deadnettle (henbit deadnettle, Lamium amplexicaule), Italian ryegrass (Lolium multiflorum), kochia (Kochia scoparia), lambsquarters (Chenopodium album), oilseed rape (Brassica napus), pigweed (Amaranthus retroflexus), chamomile (scentless chamomile, Matricaria inodora), Russian thistle (Salsola kali), speedwell (bird's-eye speedwell, Veronica persica), spring barley (Hordeum vulgare), spring wheat (Triticum aestivum), wild buckwheat (Polygonum convolvulus), wild mustard (Sinapis arvensis), wild oat (Avenafatua), wild radish (Raphanus raphanistrum), windgrass (Apera spica-venti), winter barley (Hordeum vulgare), and winter wheat (Triticum aestivum) were planted into a silt loam soil and treated preemergence with test chemicals formulated in a non-phytotoxic solvent mixture which included a surfactant.
(§2) At the same time, these species were planted in pots containing Redi-Earth® planting medium (Scotts Company, 14111 Scottslawn Road, Marysville, Ohio 43041) comprising spaghnum peat moss, vermiculite, wetting agent and starter nutrients and treated with postemergence applications of the test chemicals formulated in the same manner. Plants ranged in height from 2 to 18 cm (1- to 4-leaf stage). Treated plants and controls were maintained in a controlled growth environment for 14 to 21 days after which time all species were compared to controls and visually evaluated. Plant response ratings, summarized in Table D, are based on a scale of 0 to 100 where 0 is no effect and 100 is complete control. A dash (-) response means no test result.

[2] = system: wild radish (Raphanus raphanistrum); experiment: Test D postemergence; format: in vivo
Outline: (§3)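 Preemergent and postemergent sprays of solvent/surfactant-formulated compound; visual rating 0 (none) to 100 (complete control) after 14–21 days versus controls.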

[3] = system: galium (catchweed bedstraw, Galium aparine); experiment: Test D postemergence; format: in vivo
Outline: as §3

[4] = system: windgrass (Apera spica-venti); experiment: Test D postemergence; format: in vivo
Outline: as §3

[5] = system: Italian ryegrass (Lolium multiflorum); experiment: Test D postemergence; format: in vivo
Outline: as §3

[6] = system: spring barley (Hordeum vulgare); experiment: Test D postemergence; format: in vivo
Outline: as §3

[7] = system: speedwell (bird's-eye speedwell, Veronica persica); experiment: Test D postemergence; format: in vivo
Outline: as §3

wild oat (Avenafatua) [8] = experiment: Test D preemergence; format: in vivo, Avena fatua
From the text: as §1, §2

[9] = system: wild radish (Raphanus raphanistrum); experiment: Test D preemergence; format: in vivo
From the text: as §1, §2

[10] = system: galium (catchweed bedstraw, Galium aparine); experiment: Test D preemergence; format: in vivo
From the text: as §1, §2

[11] = system: field violet (Viola arvensis); experiment: Test D preemergence; format: in vivo
From the text: as §1, §2

[12] = system: spring wheat (Triticum aestivum); experiment: Test D preemergence; format: in vivo
From the text: as §1, §2

[13] = system: windgrass (Apera spica-venti); experiment: Test D preemergence; format: in vivo
From the text: as §1, §2

[14] = system: cutleaf geranium (Geranium dissectum); experiment: Test D preemergence; format: in vivo
From the text: as §1, §2

[15] = system: winter barley (Hordeum vulgare); experiment: Test D preemergence; format: in vivo
From the text: as §1, §2

[16] = system: Russian thistle (Salsola kali); experiment: Test D preemergence; format: in vivo
From the text: as §1, §2

[17] = system: green foxtail (Setaria viridis); experiment: Test D preemergence; format: in vivo
From the text: as §1, §2

[18] = system: wild mustard (Sinapis arvensis); experiment: Test D preemergence; format: in vivo
From the text: as §1, §2

[19] = system: Italian ryegrass (Lolium multiflorum); experiment: Test D preemergence; format: in vivo
From the text: as §1, §2

[20] = system: speedwell (bird's-eye speedwell, Veronica persica); experiment: Test D preemergence; format: in vivo
From the text: as §1, §2

[21] = system: blackgrass (Alopecurus myosuroides); experiment: Test D preemergence; format: in vivo
From the text: as §1, §2

## FC(F)(F)c1cnc(Oc2c(Br)cccc2Oc2ncc(Cl)cn2)nc1 [Compound 24]
Wild oat (Avenafatua) [1]; 16 g ai/ha
  Plant response rating, Oat, Wild: 15
Wild oat (Avenafatua) [1]; 31 g ai/ha
  Plant response rating, Oat, Wild: 20
Wild oat (Avenafatua) [1]; 62 g ai/ha
  Plant response rating, Oat, Wild: 25
Wild oat (Avenafatua) [1]; 125 g ai/ha
  Plant response rating, Oat, Wild: 35
[2]; 16 g ai/ha
  Plant response rating, Radish, Wild: 75
[2]; 31 g ai/ha
  Plant response rating, Radish, Wild: 75
[2]; 62 g ai/ha
  Plant response rating, Radish, Wild: 95
[2]; 125 g ai/ha
  Plant response rating, Radish, Wild: 100
[3]; 16 g ai/ha
  Plant response rating, Galium: 40
[3]; 31 g ai/ha
  Plant response rating, Galium: 70
[3]; 62 g ai/ha
  Plant response rating, Galium: 85
[3]; 125 g ai/ha
  Plant response rating, Galium: 90
[4]; 16 g ai/ha
  Plant response rating, Windgrass: 10
[4]; 31 g ai/ha
  Plant response rating, Windgrass: 15
[4]; 62 g ai/ha
  Plant response rating, Windgrass: 25
[4]; 125 g ai/ha
  Plant response rating, Windgrass: 35
[5]; 16 g ai/ha
  Plant response rating, Ryegrass, Italian: 15
[5]; 31 g ai/ha
  Plant response rating, Ryegrass, Italian: 20
[5]; 62 g ai/ha
  Plant response rating, Ryegrass, Italian: 25
[5]; 125 g ai/ha
  Plant response rating, Ryegrass, Italian: 35
[6]; 16 g ai/ha
  Plant response rating, Barley, Spring: 15
[6]; 31 g ai/ha
  Plant response rating, Barley, Spring: 20
[6]; 62 g ai/ha
  Plant response rating, Barley, Spring: 20
[6]; 125 g ai/ha
  Plant response rating, Barley, Spring: 25
[7]; 16 g ai/ha
  Plant response rating, Speedwell: 35
[7]; 31 g ai/ha
  Plant response rating, Speedwell: 60
[7]; 62 g ai/ha
  Plant response rating, Speedwell: 80
[7]; 125 g ai/ha
  Plant response rating, Speedwell: 90
Wild oat (Avenafatua) [8]; 16 g ai/ha
  Plant response rating, Oat, Wild: 0
Wild oat (Avenafatua) [8]; 31 g ai/ha
  Plant response rating, Oat, Wild: 15
Wild oat (Avenafatua) [8]; 62 g ai/ha
  Plant response rating, Oat, Wild: 25
Wild oat (Avenafatua) [8]; 125 g ai/ha
  Plant response rating, Oat, Wild: 75
[9]; 16 g ai/ha
  Plant response rating, Radish, Wild: 0
[9]; 31 g ai/ha
  Plant response rating, Radish, Wild: 20
[9]; 62 g ai/ha
  Plant response rating, Radish, Wild: 45
[9]; 125 g ai/ha
  Plant response rating, Radish, Wild: 70
[10]; 16 g ai/ha
  Plant response rating, Galium: 0
[10]; 31 g ai/ha
  Plant response rating, Galium: 25
[10]; 62 g ai/ha
  Plant response rating, Galium: 85
[10]; 125 g ai/ha
  Plant response rating, Galium: 70
[11]; 16 g ai/ha
  Plant response rating, Field Violet: 20
[11]; 31 g ai/ha
  Plant response rating, Field Violet: 20
[11]; 62 g ai/ha
  Plant response rating, Field Violet: 75
[11]; 125 g ai/ha
  Plant response rating, Field Violet: 100
[12]; 16 g ai/ha
  Plant response rating, Wheat, Spring: 0
[12]; 31 g ai/ha
  Plant response rating, Wheat, Spring: 0
[12]; 62 g ai/ha
  Plant response rating, Wheat, Spring: 0
[12]; 125 g ai/ha
  Plant response rating, Wheat, Spring: 40
[13]; 16 g ai/ha
  Plant response rating, Windgrass: 5
[13]; 31 g ai/ha
  Plant response rating, Windgrass: 15
[13]; 62 g ai/ha
  Plant response rating, Windgrass: 25
[13]; 125 g ai/ha
  Plant response rating, Windgrass: 85
[14]; 16 g ai/ha
  Plant response rating, Geranium, Cutleaf: 75
[14]; 31 g ai/ha
  Plant response rating, Geranium, Cutleaf: 75
[14]; 62 g ai/ha
  Plant response rating, Geranium, Cutleaf: 90
[14]; 125 g ai/ha
  Plant response rating, Geranium, Cutleaf: 100
[15]; 16 g ai/ha
  Plant response rating, Barley, Winter: 10
[15]; 31 g ai/ha
  Plant response rating, Barley, Winter: 15
[15]; 62 g ai/ha
  Plant response rating, Barley, Winter: 25
[15]; 125 g ai/ha
  Plant response rating, Barley, Winter: 70
[16]; 16 g ai/ha
  Plant response rating, Russian Thistle: 0
[16]; 31 g ai/ha
  Plant response rating, Russian Thistle: 0
[16]; 62 g ai/ha
  Plant response rating, Russian Thistle: 35
[16]; 125 g ai/ha
  Plant response rating, Russian Thistle: 80
[17]; 16 g ai/ha
  Plant response rating, Foxtail, Green: 10
[17]; 31 g ai/ha
  Plant response rating, Foxtail, Green: 35
[17]; 62 g ai/ha
  Plant response rating, Foxtail, Green: 75
[17]; 125 g ai/ha
  Plant response rating, Foxtail, Green: 85
[18]; 16 g ai/ha
  Plant response rating, Mustard, Wild: 15
[18]; 31 g ai/ha
  Plant response rating, Mustard, Wild: 35
[18]; 62 g ai/ha
  Plant response rating, Mustard, Wild: 55
[18]; 125 g ai/ha
  Plant response rating, Mustard, Wild: 100
[19]; 16 g ai/ha
  Plant response rating, Ryegrass, Italian: 10
[19]; 31 g ai/ha
  Plant response rating, Ryegrass, Italian: 15
[19]; 62 g ai/ha
  Plant response rating, Ryegrass, Italian: 25
[19]; 125 g ai/ha
  Plant response rating, Ryegrass, Italian: 65
[20]; 16 g ai/ha
  Plant response rating, Speedwell: 35
[20]; 31 g ai/ha
  Plant response rating, Speedwell: 100
[20]; 62 g ai/ha
  Plant response rating, Speedwell: 100
[20]; 125 g ai/ha
  Plant response rating, Speedwell: 100
[21]; 16 g ai/ha
  Plant response rating, Blackgrass: 15
[21]; 31 g ai/ha
  Plant response rating, Blackgrass: 25
[21]; 62 g ai/ha
  Plant response rating, Blackgrass: 35
[21]; 125 g ai/ha
  Plant response rating, Blackgrass: 55
